Where two headings read alike, the source gives them in different places.
Assays:
PKC = target: T1, PKC; test: Saturation binding of 3H-PDBu; settings: batch-to-batch variability
T1 construct: rows headed: KD of 3H-PDBu

porcine liver esterase = test: Porcine Liver Esterase Assay; type: in vitro ADME; settings: pig; 60 units of porcine liver esterase, HEPES buffered saline, pH 7.4, 10% DMSO, 37° C.; read-out: Esterase stability (t1/2)* (converted)
Method: (§1) Hydrolytic Stability Assay: A solution of 400 μM of parent compound or prodrug derivative with 2,4,6-trimethylphenol (800 μM, 107 μg) in HEPES buffered saline, pH 7.4, with 10% DMSO (total volume 1000 μL) was incubated at 37° C. At appropriate time points, 100 μL was removed, flash frozen, and lyophilized. The lyophilized material was then diluted with 100 μL acetonitrile, filtered, and analyzed by analytical HPLC. The degree of degradation was calculated relative to the area under the curve of the compound of interest compared to the internal standard, 2,4,6-trimethylphenol, as shown in Table 1. Porcine Liver Esterase Assay: A solution of 400 μM of parent compound or prodrug derivative with 2,4,6-trimethylphenol (800 μM, 160 μg) and 60 units of porcine liver esterase in HEPES buffered saline, pH 7.4, with 10% DMSO (total volume 1500 μL) was incubated at 37° C. At appropriate time points, 150 μL was removed, flash frozen, and centrifuged at 10,000 rpm. 140 μL of the supernatant was removed and lyophilized. The lyophilized material was then diluted with 100 μL acetonitrile, filtered, and analyzed by analytical HPLC. The degree of esterase cleavage was calculated relative to the area under the curve of the compound of interest compared to the internal standard, 2,4,6-trimethylphenol.

C57/bl6 mice = test: In vivo C57/bl6 Mouse CD69 Stimulation Assay; settings: for CD69 expression versus parent compound: 60 μg dose; for stimulation of CD69 in splenocytes: 24 h post-injection; for bolus toxicity: highest dosage
Method: In vivo C57/bl6 Mouse CD69 Stimulation Assay: C57/bl6 mice were obtained from the UCLA Department of Radiation Oncology. Prodrugs of the disclosure were administered intravenously via retro-orbital injection. At 24 h post-injection, mice were sacrificed and the spleens isolated. Spleens were disaggregated by forcing tissue through a steel mesh and then filtered through a 40 μm filter to produce a single-cell suspension. These cells were then stained for flow cytometry to analyze surface expression of relevant markers. Cells were first suspended in 50 μL of a 1:1 mix of 1× PBS and human AB serum (Sigma) and then stained with a combination of anti-mouse CD3-fluorescein isothiocyanate (eBioscience), CD69-phycoerythrin (eBioscience), and CD4-peridinin chlorophyll protein (eBioscience). Following antibody addition, the mixture was incubated at 4° C. for 15 min. The cells were then washed, resuspended in 1× PBS containing 2% paraformaldehyde, and stored at 4° C. Fixed cells were analyzed using an LSRFortessa (BD Biosciences). The resultant list mode files were processed using FlowJo software (version 7.6).

[1] = Hydrolytic Stability Assay; type: physicochemical; settings: buffer, HEPES buffered saline, pH 7.4, 10% DMSO, 37° C.; for half-life at 400 μM: read-out: Hydrolytic stability (t1/2); for half-life: read-out: Hydrolytic stability (t1/2) (converted)
Method: as §1

Novel PKCδ = target: T2, Novel PKCδ (Homo sapiens, UniProt Q05655); test: PKC binding affinity, competitive radioligand assay against 3H-PDBu
T2 construct: a specific full-length PKC isoform was combined with Tris-HCl, KCl, CaCl2
T2 sequence (Q05655 whole entry, canonical isoform): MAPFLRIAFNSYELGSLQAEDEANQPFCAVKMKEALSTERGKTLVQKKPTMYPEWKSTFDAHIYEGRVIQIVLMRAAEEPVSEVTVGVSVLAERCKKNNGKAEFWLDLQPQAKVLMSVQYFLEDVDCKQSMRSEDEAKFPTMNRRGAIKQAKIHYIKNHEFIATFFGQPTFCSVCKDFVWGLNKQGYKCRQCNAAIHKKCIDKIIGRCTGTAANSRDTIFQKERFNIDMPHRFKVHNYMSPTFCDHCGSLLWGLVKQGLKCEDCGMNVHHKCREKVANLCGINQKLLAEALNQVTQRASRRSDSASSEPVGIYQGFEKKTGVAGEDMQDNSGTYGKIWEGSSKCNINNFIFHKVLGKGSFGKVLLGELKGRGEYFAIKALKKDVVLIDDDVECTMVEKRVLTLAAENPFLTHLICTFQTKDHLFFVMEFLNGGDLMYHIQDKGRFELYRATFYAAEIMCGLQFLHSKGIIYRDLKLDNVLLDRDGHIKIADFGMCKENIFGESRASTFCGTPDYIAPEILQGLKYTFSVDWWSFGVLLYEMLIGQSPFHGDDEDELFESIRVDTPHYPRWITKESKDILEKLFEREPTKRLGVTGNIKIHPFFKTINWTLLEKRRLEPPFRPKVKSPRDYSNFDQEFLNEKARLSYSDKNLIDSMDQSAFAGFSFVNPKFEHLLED
Method: (§2) Testing of Compounds for PKC Binding Affinity: A heterogeneous competitive radioligand assay against ^3H-phorbol-12,13-dibutyrate (^3H-PDBu) was used to generate PKC binding constant (Ki) values. In a typical assay, a specific full-length PKC isoform was combined with Tris-HCl, KCl, CaCl2, bovine serum albumin, water, and phosphatidyl serine. Serial dilutions of the respective analog were added to the PKC mixture; in addition, a solution of a compound with known PKC binding affinity and a solution containing no sample were added for reference.
(§3) After addition of [^3H]PDBu, these samples were incubated, filtered through filters previously wetted with polyethyleneimine and the filters were washed with Tris buffer. The filters were then placed into scintillation vials which were then filled with Bio-Safe scintillation fluid and were measured for radioactivity using a Beckman LS 6000SC scintillation counter. Counts per minute (cpm) were averaged for each triplicate dilution. The data was then plotted (cpm vs. log(concentration)) using Prism® by GraphPad Software and an IC50 was determined using that program's built-in one-site competition least squares regression function. Ki values were calculated by the equation: Ki=IC50/(1+[^3H-PDBu])/KD of ^3H-PDBu).

Conventional PKCβI = target: T3, Conventional PKCβI (Homo sapiens, UniProt P05771); test: as above
T3 construct: a specific full-length PKC isoform was combined with Tris-HCl, KCl, CaCl2
T3 sequence (P05771 whole entry, canonical isoform): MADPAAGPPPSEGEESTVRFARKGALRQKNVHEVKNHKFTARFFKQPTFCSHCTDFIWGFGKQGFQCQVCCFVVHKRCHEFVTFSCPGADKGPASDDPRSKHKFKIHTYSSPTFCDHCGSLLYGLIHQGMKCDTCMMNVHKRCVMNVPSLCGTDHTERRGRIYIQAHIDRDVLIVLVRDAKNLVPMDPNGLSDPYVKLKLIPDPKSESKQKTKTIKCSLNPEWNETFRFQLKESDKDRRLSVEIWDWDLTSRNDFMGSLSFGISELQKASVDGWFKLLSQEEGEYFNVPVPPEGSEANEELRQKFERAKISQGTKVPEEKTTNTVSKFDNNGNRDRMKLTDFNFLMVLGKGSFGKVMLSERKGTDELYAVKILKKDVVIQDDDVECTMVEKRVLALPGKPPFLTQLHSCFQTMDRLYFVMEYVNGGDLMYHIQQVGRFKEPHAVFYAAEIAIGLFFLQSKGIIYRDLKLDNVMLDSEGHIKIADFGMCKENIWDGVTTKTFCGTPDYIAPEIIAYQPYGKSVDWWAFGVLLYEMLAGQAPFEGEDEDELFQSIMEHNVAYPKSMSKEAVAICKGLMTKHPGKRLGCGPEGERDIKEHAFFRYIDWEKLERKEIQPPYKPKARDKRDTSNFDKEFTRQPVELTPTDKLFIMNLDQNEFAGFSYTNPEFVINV
Method: as §2, §3

[2] = tested on: T-lymphoblastoid CEM-SS and C-8166 cells; settings: CEM-SS and C-8166 cell lines; cited from earlier work
[3] = intravenous retro-orbital injection
[4] = vs 3H-PDBu, read-out: PKC binding affinity, Ki, Novel PKCδ

^3H-phorbol-12,13-dibutyrate [^3H-PDBu]
Kd (PKC): 1.55 to 4.4 nM

CC(=O)OCC1=C[C@H]2[C@@H]3C(C)(C)[C@]3(OC(=O)CC34CC5CC(CC(C5)C3)C4)C[C@@H](C)[C@]2(O)[C@@H]2C=C(C)C(=O)[C@@]2(O)C1 [Compound 4a]
half-life at 400 μM (porcine liver esterase): 27 ± 3 h
CD69 expression versus parent compound (C57/bl6 mice): more moderate levels of activation
stimulation of CD69 in splenocytes (C57/bl6 mice): strong stimulation of CD69 in splenocytes
bolus toxicity (C57/bl6 mice): no bolus toxicity on mice even at the highest dosage
survival of mice (C57/bl6 mice; [3]): survived
half-life at 400 μM [1]: > 168 h
Ki (Novel PKCδ): 9400 nM

CCCCCCCCCC(=O)OCC1=C[C@H]2[C@@H]3C(C)(C)[C@]3(OC(=O)CC34CC5CC(CC(C5)C3)C4)C[C@@H](C)[C@]2(O)[C@@H]2C=C(C)C(=O)[C@@]2(O)C1 [Compound 4c]
half-life at 400 μM (porcine liver esterase): 19 ± 2 h
CD69 expression versus parent compound (C57/bl6 mice): comparable
stimulation of CD69 in splenocytes (C57/bl6 mice): strong stimulation of CD69 in splenocytes
bolus toxicity (C57/bl6 mice): no bolus toxicity on mice even at the highest dosage
survival of mice (C57/bl6 mice; [3]): survived
half-life at 400 μM [1]: > 168 h
Ki (Novel PKCδ): 9000 nM

CC1=C[C@H]2[C@@]3(O)[C@H](C)C[C@]4(OC(=O)CC56CC7CC(CC(C7)C5)C6)[C@H]([C@@H]3C=C(CO)C[C@]2(O)C1=O)C4(C)C [Compound 3, adamantyl prostratin]
survival of mice (C57/bl6 mice; [3]): one mouse casualty at 60 pg and no survival beyond that dose
potency compared with prostratin (C57/bl6 mice; intravenous retro-orbital injection, 24 h): higher potency than prostratin

CC1=C[C@H]2[C@@]3(O)[C@H](C)C[C@]4(OC(=O)CC56CC7CC(CC(C7)C5)C6)[C@H]([C@@H]3C=C(COC(=O)c3ccccc3)C[C@]2(O)C1=O)C4(C)C [Compound 4d]
half-life at 400 μM (porcine liver esterase): 32 ± 9 h
half-life at 400 μM [1]: > 168 h
Ki (Conventional PKCβI): > 500 nM
Ki (Novel PKCδ): > 2500 nM

CCCCCCCCNC(=O)OCC1=C[C@H]2[C@@H]3C(C)(C)[C@]3(OC(=O)CC34CC5CC(CC(C5)C3)C4)C[C@@H](C)[C@]2(O)[C@@H]2C=C(C)C(=O)[C@@]2(O)C1 [Compound 4f]
half-life at 400 μM (porcine liver esterase): 71 ± 13 h
half-life at 400 μM [1]: > 168 h
Ki (Novel PKCδ): 2900 nM

CCOC(=O)OCC1=C[C@H]2[C@@H]3C(C)(C)[C@]3(OC(=O)CC34CC5CC(CC(C5)C3)C4)C[C@@H](C)[C@]2(O)[C@@H]2C=C(C)C(=O)[C@@]2(O)C1 [Compound 4e]
half-life at 400 μM (porcine liver esterase): 4.8 ± 0.6 h
half-life at 400 μM [1]: > 168 h
Ki (Novel PKCδ): 380 nM

CCCCCC(=O)OCC1=C[C@H]2[C@@H]3C(C)(C)[C@]3(OC(=O)CC34CC5CC(CC(C5)C3)C4)C[C@@H](C)[C@]2(O)[C@@H]2C=C(C)C(=O)[C@@]2(O)C1 [Compound 4b]
half-life at 400 μM (porcine liver esterase): 2.4 ± 0.5 h
half-life at 400 μM [1]: > 1780 h
Ki (Conventional PKCβI): > 2500 nM
Ki (Novel PKCδ): > 2500 nM

CCCCCCCCCC(=O)OCC1=C[C@@H]2C(=O)[C@]3(C=C(C)[C@H](OC(=O)c4ccc(Br)cc4C)[C@@]3(O)[C@@H]1O)[C@H](C)C[C@@H]1[C@H]2C1(C)C [Compound 7]
half-life (porcine liver esterase): 2 h
half-life [1]: 2 h
Ki (Novel PKCδ; [4]): 11000 nM

CC(=O)O[C@@]12C[C@@H](C)[C@@]3(O)[C@@H](C=C(CO)C[C@]4(O)C(=O)C(C)=C[C@@H]34)[C@@H]1C2(C)C [prostratin]
concentration restoring cell viability to the level of uninfected controls [2]: approximately 1 μM
no sign of cytotoxicity up to [2]: about 25 μM

CC1=C[C@]23C(=O)[C@@H](C=C(CO)[C@@H](O)[C@]2(O)[C@H]1OC(=O)c1ccc(Br)cc1C)[C@H]1[C@@H](C[C@H]3C)C1(C)C [Compound 6, o-methyl-p-bromo-benzoate ingenol ester]
half-life (porcine liver esterase): 1 h
half-life [1]: 18 h
Ki (Conventional PKCβI; vs 3H-PDBu, read-out: PKC binding affinity, Ki, Conventional PKCβI): 0.85 nM
Ki (Novel PKCδ; [4]): 1.1 nM

Reference: patent US11370743B2, “Prodrug derivatives of protein kinase C modulators” (priority 2017, dated 2022)
